Laboratory results taken from the NIST ThermoML archive (doi:10.1016/j.jct.2017.01.016).

Assay: xn = mol fraction of the nth substance listed
Conditions: 101 kPa, Liquid; for viscosity: Capillary tube (Ostwald / Ubbelohde) method; for speed of sound: Frequency=3 MHz, Linear variable-path acoustic interferometer

Cc1cccc(C)c1 [1,3-dimethylbenzene] + C1COCCO1
Conditions	speed of sound [m/s]	viscosity [mPa·s]
293.15 K, x2 = 0	1346.7	0.6184
293.15 K, x2 = 0.0938	1341.2	0.674
293.15 K, x2 = 0.1532	1338.2	0.7104
293.15 K, x2 = 0.2046	1335.9	0.7427
293.15 K, x2 = 0.2698	1333.4	0.7843
293.15 K, x2 = 0.3374	1331.4	0.8284
293.15 K, x2 = 0.4002	1330.1	0.8702
293.15 K, x2 = 0.4714	1329.3	0.9186
293.15 K, x2 = 0.5487	1329.6	0.9721
293.15 K, x2 = 0.63	1331.2	1.03
293.15 K, x2 = 0.7182	1335	1.093
293.15 K, x2 = 0.8035	1341	1.156
293.15 K, x2 = 0.8708	1347.8	1.207
293.15 K, x2 = 0.9324	1355.8	1.254
298.15 K, x2 = 0	1323.6	0.584
298.15 K, x2 = 0.0938	1318.3	0.633
298.15 K, x2 = 0.1532	1315.4	0.6651
298.15 K, x2 = 0.2046	1313.2	0.6934
298.15 K, x2 = 0.2698	1310.8	0.7303
298.15 K, x2 = 0.3374	1308.8	0.7694
298.15 K, x2 = 0.4002	1307.6	0.8064
298.15 K, x2 = 0.4714	1307	0.8493
298.15 K, x2 = 0.5487	1307.3	0.8968
298.15 K, x2 = 0.63	1309.1	0.948
298.15 K, x2 = 0.7182	1312.9	1.005
298.15 K, x2 = 0.8035	1318.8	1.061
298.15 K, x2 = 0.8708	1325.5	1.106
298.15 K, x2 = 0.9324	1333.5	1.148
303.15 K, x2 = 0	1302.4	0.5517
303.15 K, x2 = 0.0938	1297.2	0.5953
303.15 K, x2 = 0.1532	1294.4	0.6236
303.15 K, x2 = 0.2046	1292.2	0.6487
303.15 K, x2 = 0.2698	1289.8	0.6811
303.15 K, x2 = 0.3374	1287.9	0.7159
303.15 K, x2 = 0.4002	1286.6	0.7488
303.15 K, x2 = 0.4714	1286	0.787
303.15 K, x2 = 0.5487	1286.3	0.8293
303.15 K, x2 = 0.63	1288.1	0.875
303.15 K, x2 = 0.7182	1291.9	0.9258
303.15 K, x2 = 0.8035	1297.7	0.976
303.15 K, x2 = 0.8708	1304.4	1.016
303.15 K, x2 = 0.9324	1312.2	1.054
308.15 K, x2 = 0	1282.3	0.5229
308.15 K, x2 = 0.0938	1277.1	0.5621
308.15 K, x2 = 0.1532	1274.3	0.5875
308.15 K, x2 = 0.2046	1272.1	0.6101
308.15 K, x2 = 0.2698	1269.7	0.6392
308.15 K, x2 = 0.3374	1267.8	0.6706
308.15 K, x2 = 0.4002	1266.5	0.7002
308.15 K, x2 = 0.4714	1265.8	0.7347
308.15 K, x2 = 0.5487	1266	0.773
308.15 K, x2 = 0.63	1267.7	0.8144
308.15 K, x2 = 0.7182	1271.2	0.8604
308.15 K, x2 = 0.8035	1276.9	0.9061
308.15 K, x2 = 0.8708	1283.2	0.943
308.15 K, x2 = 0.9324	1290.7	0.9769
313.15 K, x2 = 0	1262.3	0.4938
313.15 K, x2 = 0.0938	1257.2	0.5297
313.15 K, x2 = 0.1532	1254.3	0.553
313.15 K, x2 = 0.2046	1252.2	0.5737
313.15 K, x2 = 0.2698	1249.8	0.6005
313.15 K, x2 = 0.3374	1247.9	0.6291
313.15 K, x2 = 0.4002	1246.6	0.6563
313.15 K, x2 = 0.4714	1245.8	0.688
313.15 K, x2 = 0.5487	1246	0.7231
313.15 K, x2 = 0.63	1247.5	0.7611
313.15 K, x2 = 0.7182	1250.9	0.8034
313.15 K, x2 = 0.8035	1256.4	0.8453
313.15 K, x2 = 0.8708	1262.4	0.8793
313.15 K, x2 = 0.9324	1269.6	0.9105
318.15 K, x2 = 0	1243	0.468
318.15 K, x2 = 0.0938	1237.9	0.501
318.15 K, x2 = 0.1532	1235.1	0.5226
318.15 K, x2 = 0.2046	1232.9	0.5416
318.15 K, x2 = 0.2698	1230.5	0.5665
318.15 K, x2 = 0.3374	1228.5	0.5928
318.15 K, x2 = 0.4002	1227.2	0.6178
318.15 K, x2 = 0.4714	1226.4	0.647
318.15 K, x2 = 0.5487	1226.5	0.6794
318.15 K, x2 = 0.63	1227.9	0.7144
318.15 K, x2 = 0.7182	1231.1	0.7535
318.15 K, x2 = 0.8035	1236.2	0.7922
318.15 K, x2 = 0.8708	1242	0.8232
318.15 K, x2 = 0.9324	1248.9	0.852

C1COCCO1 [1,4-dioxane] + c1ccccc1
Conditions	speed of sound [m/s]	viscosity [mPa·s]
293.15 K, x1 = 0.0713	1329.8	0.6955
293.15 K, x1 = 0.1403	1334.5	0.7421
293.15 K, x1 = 0.2123	1339.4	0.7905
293.15 K, x1 = 0.2809	1343.6	0.8364
293.15 K, x1 = 0.3528	1347.9	0.8842
293.15 K, x1 = 0.4195	1351.5	0.9283
293.15 K, x1 = 0.5037	1355.8	0.9838
293.15 K, x1 = 0.58	1359.2	1.034
293.15 K, x1 = 0.6504	1362.2	1.08
293.15 K, x1 = 0.7197	1364.2	1.125
293.15 K, x1 = 0.7822	1365.4	1.165
293.15 K, x1 = 0.8561	1366.9	1.213
293.15 K, x1 = 0.9287	1367.4	1.26
293.15 K, x1 = 1	1367.2	1.306
298.15 K, x1 = 0.0713	1304	0.6485
298.15 K, x1 = 0.1403	1308.1	0.6905
298.15 K, x1 = 0.2123	1312.5	0.7339
298.15 K, x1 = 0.2809	1316.5	0.775
298.15 K, x1 = 0.3528	1320.5	0.8179
298.15 K, x1 = 0.4195	1324	0.8574
298.15 K, x1 = 0.5037	1328.2	0.907
298.15 K, x1 = 0.58	1332	0.9517
298.15 K, x1 = 0.6504	1335.1	0.9928
298.15 K, x1 = 0.7197	1337.5	1.033
298.15 K, x1 = 0.7822	1339.8	1.069
298.15 K, x1 = 0.8561	1342	1.112
298.15 K, x1 = 0.9287	1343.7	1.154
298.15 K, x1 = 1	1344.7	1.195
303.15 K, x1 = 0.0713	1279.4	0.6068
303.15 K, x1 = 0.1403	1283	0.6446
303.15 K, x1 = 0.2123	1287	0.6836
303.15 K, x1 = 0.2809	1290.6	0.7206
303.15 K, x1 = 0.3528	1294.2	0.7591
303.15 K, x1 = 0.4195	1297.6	0.7946
303.15 K, x1 = 0.5037	1301.8	0.839
303.15 K, x1 = 0.58	1305.7	0.879
303.15 K, x1 = 0.6504	1309.2	0.9157
303.15 K, x1 = 0.7197	1312.3	0.9517
303.15 K, x1 = 0.7822	1315.1	0.9841
303.15 K, x1 = 0.8561	1318.2	1.022
303.15 K, x1 = 0.9287	1320.8	1.059
303.15 K, x1 = 1	1323.1	1.096
308.15 K, x1 = 0.0713	1255.4	0.5686
308.15 K, x1 = 0.1403	1258.7	0.6033
308.15 K, x1 = 0.2123	1262	0.6392
308.15 K, x1 = 0.2809	1265.1	0.673
308.15 K, x1 = 0.3528	1268.7	0.7082
308.15 K, x1 = 0.4195	1272	0.7406
308.15 K, x1 = 0.5037	1276.1	0.7812
308.15 K, x1 = 0.58	1280.2	0.8176
308.15 K, x1 = 0.6504	1284	0.851
308.15 K, x1 = 0.7197	1287.4	0.8837
308.15 K, x1 = 0.7822	1290.8	0.9131
308.15 K, x1 = 0.8561	1294.5	0.9477
308.15 K, x1 = 0.9287	1297.9	0.9815
308.15 K, x1 = 1	1301.2	1.014
313.15 K, x1 = 0.0713	1231.7	0.532
313.15 K, x1 = 0.1403	1234.3	0.5644
313.15 K, x1 = 0.2123	1237.2	0.5979
313.15 K, x1 = 0.2809	1240.5	0.6294
313.15 K, x1 = 0.3528	1244	0.6621
313.15 K, x1 = 0.4195	1247.1	0.6921
313.15 K, x1 = 0.5037	1251.3	0.7297
313.15 K, x1 = 0.58	1255.5	0.7634
313.15 K, x1 = 0.6504	1259.4	0.7943
313.15 K, x1 = 0.7197	1263.5	0.8245
313.15 K, x1 = 0.7822	1266.8	0.8516
313.15 K, x1 = 0.8561	1271.2	0.8835
313.15 K, x1 = 0.9287	1275.3	0.9146
313.15 K, x1 = 1	1279.7	0.945
318.15 K, x1 = 0.0713	1209.6	0.4993
318.15 K, x1 = 0.1403	1211.9	0.5297
318.15 K, x1 = 0.2123	1214.5	0.5611
318.15 K, x1 = 0.2809	1217.2	0.5906
318.15 K, x1 = 0.3528	1220.5	0.6211
318.15 K, x1 = 0.4195	1223.6	0.6492
318.15 K, x1 = 0.5037	1227.9	0.6842
318.15 K, x1 = 0.58	1232.1	0.7156
318.15 K, x1 = 0.6504	1236	0.7443
318.15 K, x1 = 0.7197	1240.1	0.7724
318.15 K, x1 = 0.7822	1243.9	0.7975
318.15 K, x1 = 0.8561	1248.8	0.8271
318.15 K, x1 = 0.9287	1253.6	0.8559
318.15 K, x1 = 1	1258.6	0.884
